In BindingDB's records for PubMed 36262403 (Abbvie, 2022) one finds IC50 data, which are given here for 1 compound.

The target in the assay is T1, P2X purinoceptor 7 (Rattus norvegicus, UniProt Q64663).
T1 sequence (Q64663 whole entry): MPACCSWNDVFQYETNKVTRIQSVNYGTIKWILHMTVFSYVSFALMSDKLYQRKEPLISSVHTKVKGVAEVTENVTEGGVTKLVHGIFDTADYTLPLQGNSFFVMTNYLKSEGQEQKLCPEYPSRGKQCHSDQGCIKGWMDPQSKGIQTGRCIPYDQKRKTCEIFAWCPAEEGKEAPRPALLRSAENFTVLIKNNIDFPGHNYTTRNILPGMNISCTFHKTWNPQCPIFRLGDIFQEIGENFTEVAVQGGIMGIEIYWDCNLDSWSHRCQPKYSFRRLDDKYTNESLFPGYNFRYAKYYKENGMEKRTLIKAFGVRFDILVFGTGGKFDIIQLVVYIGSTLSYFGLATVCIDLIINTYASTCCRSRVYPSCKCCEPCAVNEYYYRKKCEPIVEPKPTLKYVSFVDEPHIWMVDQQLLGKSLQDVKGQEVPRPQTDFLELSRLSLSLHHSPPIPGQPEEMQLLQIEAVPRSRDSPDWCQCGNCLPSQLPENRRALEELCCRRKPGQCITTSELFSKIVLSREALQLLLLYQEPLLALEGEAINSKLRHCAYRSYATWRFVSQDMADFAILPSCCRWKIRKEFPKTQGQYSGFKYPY
The experiment in a line: Antagonist activity against rat P2X7R expressed in human 1321N1 cell membrane incubated for 1 hrs by radioligand binding assay.

Each structure is given as a SMILES string.

`C[C@H](NC(=Nc1cccc2ncccc12)NC#N)c1ccccc1` [[3H]A-804598] returned an IC50 of 10 nM.
